Source: the Bradley open melting point set (2014)
Several values for one entry are separate records, joined by “and”; a condition that tells them apart may be missing. Identical values can stand only once.

Row | Structure (SMILES) | melting point
1 | COc1ccc(C(=O)O)cc1[N+](=O)[O-] [4-methoxy-3-nitrobenzoic acid] | 188 °C
2 | COc1ccc(C=O)cc1 [4-methoxybenzaldehyde] | 1 °C
3 | COc1cc[n+]([O-])cc1 [4-methoxypyridine n-oxide] | 102 °C
4 | CC(=O)OCC1OC(Oc2ccc(C)cc2)C(OC(C)=O)C(OC(C)=O)C1OC(C)=O (stereo not given) [4-methylphenyl 2,3,4,6-tetra-O-acetylhexopyranoside] | 126 °C
5 | Cc1cc[n+]([O-])cc1C#N [4-methylpyridine-3-carbonitrile 1-oxide] | 185 °C
6 | CCCCc1ccc(C(N)=O)cc1 [4-n-butylbenzamide] | 128 °C
7 | CCCCc1ccc(O)cc1 [4-n-butylphenol] | 22 °C
8 | CCCCCCCc1ccc(O)cc1 [4-n-heptylphenol] | 27 °C
9 | CCCCCCc1ccc(O)cc1O [4-n-hexylresorcinol] | 66 °C
10 | CCCCCCCCCc1ccc(B(O)O)cc1 [4-n-nonylbenzeneboronic acid] | 84 °C
11 | CCCCCc1ccc(B(O)O)cc1 [4-n-pentylbenzeneboronic acid] | 83 °C
12 | Cc1c[n+]([O-])ccc1[N+](=O)[O-] [4-nitro-3-picoline n-oxide] | 136 °C
13 | Nc1ccc([N+](=O)[O-])cc1N [4-nitro-o-phenylenediamine] | 201 °C
14 | COc1ccc([N+](=O)[O-])cc1 [4-nitroanisole] | 52 °C
15 | O=Cc1ccc([N+](=O)[O-])cc1 [4-nitrobenzaldehyde] | 105 °C
16 | O=[N+]([O-])c1ccc(CCl)cc1 [4-nitrobenzyl chloride] | 72 °C
17 | O=[N+]([O-])c1ccc(O)cc1 [4-nitrophenol] [listing 1 of 2 here] | 112 °C
18 | O=[N+]([O-])c1ccc(O)cc1 [4-nitrophenol] [listing 2 of 2 here] | 112 °C and 113 °C
19 | O=C(CCl)Oc1ccc([N+](=O)[O-])cc1 [4-nitrophenyl chloroacetate] | 94 °C
20 | O=C=Nc1ccc([N+](=O)[O-])cc1 [4-nitrophenyl isocyanate] | 58 °C
21 | N#CCc1ccc([N+](=O)[O-])cc1 [4-nitrophenylacetonitrile] | 116 °C
22 | O=[N+]([O-])c1cc[n+]([O-])cc1 [4-nitropyridine n-oxide] | 161 °C
23 | C=CCCC(=O)O [4-pentenoic acid] | -22 °C
24 | CC(C)(C)c1ccc(B(O)O)cc1 [4-tert-butylbenzeneboronic acid] | 194 °C
25 | CCC(C)(C)c1ccc(O)cc1 [4-tert-pentylphenol] | 89 °C
26 | O=S(=O)(Cl)Cc1ccc(C(F)(F)F)cc1 [4-trifluoromethyl-alpha-toluenesulfonyl chloride] | 104 °C
27 | Clc1cc(Cl)cc(-c2nnn[nH]2)c1 [5-(3,5-dichlorophenyl)-1h-tetrazole] | 207 °C

Row | Structure (SMILES) | melting point
28 | CCSc1nnn[nH]1 [5-(ethylthio)-1h-tetrazole] | 76 °C
29 | O=c1[nH]cc(C(F)(F)F)c(=O)[nH]1 [5-(trifluoromethyl)uracil] | 253 °C
30 | Oc1cc(Cl)ccc1Oc1ccc(Cl)cc1Cl [5-Chloro-2-(2,4-dichlorophenoxy)phenol] | 57 °C
31 | O=C1CC[C@@H](C(=O)O)N1 [5-Oxo-L-proline] | 162 °C
32 | O=C(O)CCCC[C@@H]1CCSS1 [5-[(3R)-1,2-Dithiolan-3-yl]pentanoic acid] | 60 °C
33 | NCCCCCO [5-amino-1-pentanol] | 36 °C
34 | Cn1ncc(Br)c1N [5-amino-4-bromo-1-methyl-1h-pyrazole] | 99 °C
35 | Nc1ccc(O)c(C(=O)O)c1 [5-aminosalicylic acid] | 280 °C
36 | NCCCCC(=O)O [5-aminovaleric acid] | 157 °C
37 | Cc1cc(C)c(Br)cc1C [5-bromo-1,2,4-trimethylbenzene] | 72 °C
38 | Cc1cc(Br)cn(C)c1=O [5-bromo-1,3-dimethyl-2-pyridone] | 106 °C
39 | CN1CC(Br)C(=O)NC1=O (stereo not given) [5-bromo-1-methyldihydropyrimidine-2,4(1H,3H)-dione] | 149 °C
40 | O=c1[nH]c(=O)n([C@@H]2O[C@H](CO)[C@@H](O)[C@H]2O)cc1Br [5-bromouridine] | 192 °C
41 | Nc1cc(Cl)ccc1O [5-chloro-2-hydroxyaniline] | 143 °C
42 | COc1ccc(Cl)cc1B(O)O [5-chloro-2-methoxybenzeneboronic acid] | 138 °C
43 | O=C(O)c1cc(Cl)ccc1O [5-chlorosalicylic acid] | 174 °C
44 | OB(O)c1ccc(Cl)s1 [5-chlorothiophene-2-boronic acid] | 138 °C
45 | CCc1ccc(C)nc1 [5-ethyl-2-methylpyridine] | -71 °C
46 | O=C(O)c1cc(O)ccc1[N+](=O)[O-] [5-hydroxy-2-nitrobenzoic acid] | 170 °C
47 | Cn1nnnc1S [5-mercapto-1-methyltetrazole] | 127 °C
48 | Cc1nnc(S)s1 [5-methyl-1,3,4-thiadiazole-2-thiol] | 187 °C
49 | CC(=O)OC1CCC2(C)C3CCC4(C)C(=O)CCC4C3C(=O)CC2(C)C1 (stereo not given) [5-methyl-7,17-dioxoandrostan-3-yl acetate] | 155 °C
50 | Cc1cc(C)cc([N+](=O)[O-])c1 [5-nitro-1,3-dimethylbenzene] | 74 °C
51 | O=Cc1ccc([N+](=O)[O-])o1 [5-nitro-2-furaldehyde] | 36 °C
52 | OC[C@@H]1[C@H](CO)[C@@H]2C=C[C@H]1C2 [5-norbornene-2-endo,3-endo-dimethanol] | 84 °C
53 | COc1ccc(C(C)(C)C)cc1B(O)O [5-tert-butyl-2-methoxybenzeneboronic acid] | 105 °C
54 | COc1ccc(C(C)(C)C)cc1C(=O)O [5-tert-butyl-2-methoxybenzoic acid] | 75 °C

Second part, the compound after the results:

Row | melting point | Structure (SMILES)
55 | 166 °C | COc1ccc(C(N)=O)cc1 [4-methoxybenzamide]
56 | -10 °C | COc1ccc(CN)cc1 [4-methoxybenzylamine]
57 | 56 °C | COc1ccc(O)cc1 [4-methoxyphenol]
58 | 141 °C | CCCCCCCCOc1ccc(NC(=O)c2ccc(C)cc2)cc1 [4-methyl-N-[4-(octyloxy)phenyl]benzamide]
59 | 61 °C | Cc1ccc(CO)cc1 [4-methylbenzyl_alcohol]
60 | 68 °C | Cc1ccc(O)c(O)c1 [4-methylcatechol]
61 | 5 °C | Cc1ccc(Cc2ccccc2)cc1 [4-methyldiphenylmethane]
62 | 150 °C | CC(=O)Oc1ccc2c(C)cc(=O)oc2c1 [4-methylumbelliferyl acetate]
63 | 164 °C | O=C(/C=C/c1ccc([N+](=O)[O-])cc1)c1ccccc1 [4-nitrochalcone]
64 | 143 °C | O=C(Oc1ccc([N+](=O)[O-])cc1)c1ccccc1 [4-nitrophenyl benzoate]
65 | 44 °C | N#Cc1ccc(Oc2ccccc2)cc1 [4-phenoxybenzonitrile]
66 | 76 °C | O=C(O)Cc1ccc(Oc2ccccc2)cc1 [4-phenoxyphenylacetic acid]
67 | 57 °C | c1ccc(-c2csc(-c3ccccn3)n2)cc1 [4-phenyl-2-(2-pyridyl)thiazole]
68 | 48 °C | Cc1cccc(-c2nc(-c3ccccc3)cs2)c1 [4-phenyl-2-(m-tolyl)thiazole]
69 | 58 °C | Cc1ccc(-c2nc(-c3ccccc3)cs2)cc1 [4-phenyl-2-(p-tolyl)thiazole]
70 | 32 °C | CC(C)(O)CCc1ccccc1 [4-phenyl-2-methyl-2-butanol]
71 | 52 °C | O=C(O)CCCc1ccccc1 [4-phenylbutyric acid]
72 | 80 °C | O=C1CCC(c2ccccc2)CC1 [4-phenylcyclohexanone]
73 | 208 °C | O=c1[nH][nH]c(=O)n1-c1ccccc1 [4-phenylurazole]
74 | 184 °C | Cc1cc[n+]([O-])cc1 [4-picoline n-oxide]
75 | 166 °C | CC(C)(C)c1ccc(C(=O)O)cc1 [4-tert-butylbenzoic acid]

Row | melting point | Structure (SMILES)
76 | 142 °C | C=Cc1ccc(C(=O)O)cc1 [4-vinylbenzoic acid]
77 | 149 °C | Nc1cc(-c2ccccc2)c(O)c(-c2ccccc2)c1 [5'-Amino-1,1':3',1''-terphenyl-2'-ol]
78 | 296 °C | O=C1NC(=O)C(c2ccccc2)(c2ccccc2)N1 [5,5-diphenylhydantoin]
79 | 84 °C | Cc1cc2nsnc2cc1C [5,6-dimethyl-2,1,3-benzothiadiazole]
80 | 209 °C | c1ccc(COc2cccc(-c3nnn[nH]3)c2)cc1 [5-(3-benzyloxyphenyl)-1h-tetrazole]
81 | 157 °C | COc1cccc(-c2nnn[nH]2)c1 [5-(3-methoxyphenyl)-1h-tetrazole]
82 | 278 °C | CN(C)c1ccc(/C=C2\SC(=S)NC2=O)cc1 [5-(4-dimethylaminobenzylidene)rhodanine]
83 | 319 °C | Nc1cccc2c(=O)[nH][nH]c(=O)c12 [5-Amino-2,3-dihydrophthalazine-1,4-dione]
84 | 161 °C | Cc1ccc(N)cc1O [5-Amino-o-cresol]
85 | 2 °C | Cc1ccc(C(C)C)cc1O [5-Isopropyl-2-methylphenol]
86 | 118 °C | COc1ccc2c(c1)no[n+]2[O-] [5-Methoxybenzofurazan, 1-oxide]
87 | 164 °C | N#CCc1nn(-c2ccccc2)c(N)c1C#N [5-amino-4-cyano-3-cyanomethyl-1-phenyl-1h-pyrazole,]
88 | 129 °C | Nc1cccc2cnccc12 [5-aminoisoquinoline]
89 | 112 °C | Cc1cc2cc(Cl)ccc2[nH]1 [5-chloro-2-methylindole]
90 | 123 °C | Oc1ccc(Cl)c2cccnc12 [5-chloro-8-hydroxyquinoline]
91 | 134 °C | N#CCc1csc2ccc(Cl)cc12 [5-chlorobenzo[b]thiophene-3-acetonitrile]
92 | 201 °C | COc1ccc2c(c1)C(=O)C(=O)N2 [5-methoxyisatin]
93 | 115 °C | Cc1ccc2[nH]cnc2c1 [5-methylbenzimidazole]
94 | 97 °C | Cc1ccc2c(c1)no[n+]2[O-] [5-methylbenzofuroxan]
95 | 222 °C | Clc1ccc(-c2ccnc(Cl)c2)cn1 [6,2'-dichloro-3,4'-bipyridine]
